For 22 molecules, IC50 results are on record in US12655142B2 (Merck Patent GmbH, priority 2019, dated 2026).

In test [1] the target is T1, GIST430/654 cell line expressing mutated constitutively active cKIT receptor tyrosine kinase (Δ560-576 deletion and V654A point mutation) (Homo sapiens, UniProt P10721, DEL560-576/V654A).
T1 construct: endogenous in cells; host or cells: GIST430/654 cells
Briefly: Cellular cKIT autophosphorylation (phospho-Y307-cKIT, Luminex bead assay) in GIST430/654 cells. The conditions noted are these: compounds 45 min, read-out: GIST 430/654 IC50. The test is classed as cell-based. The protocol: Assay Principle for Cellular Testing of cKIT Mutant Inhibitors
The GIST430 cell line expressing constitutive active cKIT receptor tyrosine kinase (Δ560-576 deletion) and the Imatinib resistant GIST430/654 cell line expressing mutated constitutively active cKIT receptor tyrosine kinase (Δ560-576 deletion and V654A point mutation) were employed for assessing cellular potency of compounds. Cellular activity of mutant cKIT was determined by the degree of cKIT autophosphorylation at tyrosine 307 using a Luminex-based bead assay. GIST430 cells were plated with 22,000 cells per well of a 96-well plate in 100 μl medium (85% IMDM/15% FCS) and GIST430/654 cells were plated with 25,000 cells per well of a 96-well plate in 100 μl medium (85% IMDM/15% FCS supplemented with 100 nM Imatinib). At the following day compounds were added in a serial dilution for 45 min. Then, cells were lysed with 90 μl lysis buffer (20 mM Hepes pH 7.5, 200 mM NaCl, 1.5 mM MgCl2×6H2O, 0.4 mM EDTA, 1% Triton-X-100, 1% Phosphatase-Inhibitor II, 20 mM β-Glycerolphosphat, 0.1% Protease-Inhibitor Cocktail III, 0.01% Benzonase) and lysates were cleared by centrifugation through a 96-well filter plate (0.65 μm). Samples were incubated with Luminex-beads which were coupled with an anti-total cKIT antibody overnight at 4° C. under gentle agitation. For detection of phospho-Y307-cKIT a phosphospecific antibody and a species-specific PE-labeled secondary antibody were added. The amount of phospho-Y307-cKIT was determined in a Luminex 200 instrument measuring 100 events per well within 60 seconds.
Counts from samples treated with compounds were calculated as percent of control from solvent treated (0.3% DMSO) samples. Dose-response curves were fitted and IC50 values were determined using Genedata Screener software.

In test [2] the target is T2, c-Kit(V654A) (Homo sapiens, UniProt P10721, V654A).
T2 construct: recombinant human c-Kit, amino acids 544-end containing the V654A mutation; GST (N)
The test can be described thus: c-Kit(V654A) assay (33P-ATP filter binding kinase assay). The test is classed as biochemical. The conditions noted are these: recombinant human c-Kit aa 544-end V654A, ATP 200 μM. The protocol:
c-Kit(V654A) (N-terminal GST-tagged, recombinant human c-Kit, amino acids 544-end containing the V654A mutation) is incubated with 8 mM MOPS pH 7.0, 0.2 mM EDTA, 250 μM GGMEDIYEFMGGKKK, 10 mM MgAcetate and [gamma-33P-ATP] (specific activity approx. 500 cpm/pmol, concentration 200 μM). The reaction is initiated by the addition of the MgATP mix. After incubation for 40 minutes at room temperature, the reaction is stopped by the addition of 3% phosphoric acid solution. 10 μL of the reaction is then spotted onto a P30 filtermat and washed three times for 5 minutes in 75 mM phosphoric acid and once in methanol prior to drying and scintillation counting.

T1 sequence (P10721 with tags, fused parts or gaps DEL560-576/V654A): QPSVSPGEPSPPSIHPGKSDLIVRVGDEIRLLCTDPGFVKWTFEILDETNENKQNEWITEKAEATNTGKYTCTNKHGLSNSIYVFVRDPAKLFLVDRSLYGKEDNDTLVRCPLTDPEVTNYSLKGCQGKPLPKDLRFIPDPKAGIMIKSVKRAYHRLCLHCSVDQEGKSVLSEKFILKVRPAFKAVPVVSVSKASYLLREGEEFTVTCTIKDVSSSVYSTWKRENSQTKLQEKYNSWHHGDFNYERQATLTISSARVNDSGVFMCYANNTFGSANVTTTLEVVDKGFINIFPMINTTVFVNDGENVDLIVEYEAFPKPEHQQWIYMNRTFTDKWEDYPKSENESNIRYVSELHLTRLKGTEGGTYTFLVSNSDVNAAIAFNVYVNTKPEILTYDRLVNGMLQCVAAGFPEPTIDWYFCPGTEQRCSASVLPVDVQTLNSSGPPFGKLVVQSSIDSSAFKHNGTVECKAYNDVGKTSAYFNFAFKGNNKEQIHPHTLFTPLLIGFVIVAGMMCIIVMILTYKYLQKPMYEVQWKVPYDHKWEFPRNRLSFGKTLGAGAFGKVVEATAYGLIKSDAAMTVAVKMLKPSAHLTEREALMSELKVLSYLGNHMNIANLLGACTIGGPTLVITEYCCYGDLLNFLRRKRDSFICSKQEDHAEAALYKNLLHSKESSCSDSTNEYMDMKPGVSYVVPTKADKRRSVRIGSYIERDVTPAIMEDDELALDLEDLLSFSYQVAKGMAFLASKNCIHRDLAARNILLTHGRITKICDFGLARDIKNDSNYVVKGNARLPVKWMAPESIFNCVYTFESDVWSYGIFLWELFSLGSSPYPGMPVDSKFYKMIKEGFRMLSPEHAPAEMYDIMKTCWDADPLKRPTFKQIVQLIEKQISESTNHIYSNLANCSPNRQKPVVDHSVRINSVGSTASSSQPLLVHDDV
T2 sequence (P10721 544-976 V654A): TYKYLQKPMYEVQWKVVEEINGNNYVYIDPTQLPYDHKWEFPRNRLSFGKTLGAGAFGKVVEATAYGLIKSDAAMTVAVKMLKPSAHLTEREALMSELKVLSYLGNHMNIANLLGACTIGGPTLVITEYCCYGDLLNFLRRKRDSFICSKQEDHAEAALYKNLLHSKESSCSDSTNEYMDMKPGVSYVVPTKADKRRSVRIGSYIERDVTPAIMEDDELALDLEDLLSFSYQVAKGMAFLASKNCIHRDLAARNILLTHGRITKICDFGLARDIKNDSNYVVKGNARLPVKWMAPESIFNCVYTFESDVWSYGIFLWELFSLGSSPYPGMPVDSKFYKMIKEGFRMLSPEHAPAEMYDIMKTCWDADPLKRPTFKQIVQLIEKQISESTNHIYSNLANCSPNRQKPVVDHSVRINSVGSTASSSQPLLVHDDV

As to `Cn1ncc(-c2ccc(CNc3cc(-c4cnc5cc(OCC(C)(C)N6CCOCC6)ccn45)ncn3)cc2)n1` [A109, {6-[7-(2-methyl-2-morpholin-4-yl-propoxy)-imidazo[1,2-a]pyridin-3-yl]-pyrimidin-4-yl}-[4-(2-methyl-2H-[1,2,3]triazol-4-yl)-benzyl]-amine], the IC50 is 79 nM in test [1] and 7.5 nM in test [2].
The corresponding values for `COc1cc2ncc(-c3cc(NCc4ccc(-c5cnn(C)c5)cc4)ncn3)n2cc1F` [A69, [6-(6-fluoro-7-methoxy-imidazo[1,2-a]pyridin-3-yl)-pyrimidin-4-yl]-[4-(1-methyl-1H-pyrazol-4-yl)-benzyl]-amine] are 240 nM and 13 nM.
For the molecule `COc1ccn2c(-c3cc(NCc4ccc(-c5cnn(C6CC6)c5)cc4)ncn3)cnc2c1` [A49, [4-(1-cyclopropyl-1H-pyrazol-4-yl)-benzyl]-[6-(7-methoxy-imidazo[1,2-a]pyridin-3-yl)-pyrimidin-4-yl]-amine], the IC50 in test [1] was determined as 89 nM; in test [2] it was 7.3 nM.
Take `CN1CCC(CCOc2ccn3c(-c4cc(NCc5ccc(-c6cnn(C)n6)cc5)ncn4)cnc3c2)CC1` [A130, (6-{7-[2-(1-methyl-piperidin-4-yl)-ethoxy]-imidazo[1,2-a]pyridin-3-yl}-pyrimidin-4-yl)-[4-(2-methyl-2H-[1,2,3]triazol-4-yl)-benzyl]-amine]: the IC50 in test [1] came to 40 nM; in test [2], 3.5 nM.
The matching figures for `Cn1cc(-c2ccc(CNc3cc(-c4cnc5cc(OCCN6CC7CC(C6)O7)ccn45)ncn3)cc2)cn1` [A103, [4-(1-methyl-1H-pyrazol-4-yl)-benzyl]-(6-{7-[2-(6-oxa-3-aza-bicyclo[3.1.1]hept-3-yl)-ethoxy]-imidazo[1,2-a]pyridin-3-yl}-pyrimidin-4-yl)-amine]: 120 nM and 9.5 nM.
With `Cn1cc(-c2ccc(CNc3cc(-c4cnc5cc(OCCC6CCN(C7COC7)C6)ccn45)ncn3)cc2)cn1` (centres unmarked) [A123, [4-(1-methyl-1H-pyrazol-4-yl)-benzyl]-(6-{7-[2-(1-oxetan-3-yl-pyrrolidin-3-yl)-ethoxy]-imidazo[1,2-a]pyridin-3-yl}-pyrimidin-4-yl)-amine], the results for the IC50 in test [1] and in test [2] were 56 nM and 5.8 nM, respectively.
The corresponding values for `COc1ccn2c(-c3cc(NCc4ccc(-c5cnn(C)n5)cn4)ncn3)cnc2c1` [A44, [6-(7-methoxy-imidazo[1,2-a]pyridin-3-yl)-pyrimidin-4-yl]-[5-(2-methyl-2H-[1,2,3]triazol-4-yl)-pyridin-2-ylmethyl]-amine] are 510 nM and 27 nM.
As for `CN1CCN(CCOc2ccn3c(-c4cc(OCc5ccc(-c6cnn(C)c6)cc5)ncn4)cnc3c2)CC1` [A86, 7-[2-(4-methyl-piperazin-1-yl)-ethoxy]-3-{6-[4-(1-methyl-1H-pyrazol-4-yl)-benzyloxy]-pyrimidin-4-yl}-imidazo[1,2-a]pyridine], the IC50 in test [1] was determined as 110 nM; in test [2], 5 nM.
`CN1CCC(CCOc2ccn3c(-c4cc(NCc5ccc(-c6cnn(C)n6)cc5)ncn4)cnc3c2)C1` (centres unmarked) [A116, (6-{7-[2-(1-methyl-pyrrolidin-3-yl)-ethoxy]-imidazo[1,2-a]pyridin-3-yl}-pyrimidin-4-yl)-[4-(2-methyl-2H-[1,2,3]triazol-4-yl)-benzyl]-amine]: the IC50 in test [1] stood at 48 nM; in test [2] it was 1.6 nM.
The corresponding values for `Cn1cc(-c2ccc(CNc3cc(-c4cnc5cc(N6CCOCC6)ccn45)ncn3)cc2)cn1` [A180, [4-(1-methyl-1H-pyrazol-4-yl)-benzyl]-[6-(7-morpholin-4-yl-imidazo[1,2-a]pyridin-3-yl)-pyrimidin-4-yl]-amine] are 77 nM and 7.8 nM.
In the case of `Cn1cc(-c2ccc(CNc3cc(-c4cnc5cc(OCCN6CCCC(F)(F)C6)ccn45)ncn3)cc2)cn1` [A136, 6-{7-[2-(3,3-difluoropiperidin-1-yl)ethoxy]imidazo[1,2-a]pyridin-3-yl}-N-{[4-(1-methyl-1H-pyrazol-4-yl)phenyl]methyl}pyrimidin-4-amine], the IC50 was found to be 150 nM in test [1] and 10 nM in test [2].
The corresponding values for `Cn1cc(-c2ccc(CNc3cc(-c4cnc5cc(NC(C)(C)CO)ccn45)ncn3)cc2)cn1` [A163, 2-methyl-2-(3-{6-[4-(1-methyl-1H-pyrazol-4-yl)-benzylamino]-pyrimidin-4-yl}-imidazo[1,2-a]pyridin-7-ylamino)-propan-1-ol] are 1900 nM and 85 nM.
The corresponding values for `c1cn(-c2ccc(CNc3cc(-c4cnc5cc(OCCN6CCCC6)ccn45)ncn3)cc2)nn1` [A70, {6-[7-(2-pyrrolidin-1-yl-ethoxy)-imidazo[1,2-a]pyridin-3-yl]-pyrimidin-4-yl}-(4-[1,2,3]triazol-1-yl-benzyl)-amine] are 230 nM and 21 nM.
Consider `CCN(CC)CCCOc1ccn2c(-c3cc(NCc4ccc(-c5cnn(C)c5)cc4)ncn3)cnc2c1` [A137, 6-{7-[3-(diethylamino)propoxy]imidazo[1,2-a]pyridin-3-yl}-N-{[4-(1-methyl-1H-pyrazol-4-yl)phenyl]methyl}pyrimidin-4-amine], for which the IC50 in test [1] was found to be 45 nM; in test [2] it was 5.6 nM.
`COCCN1CCC(COc2ccn3c(-c4cc(NCc5ccc(-c6cnn(C)n6)cc5)ncn4)cnc3c2)CC1` [A191, (6-{7-[1-(2-methoxy-ethyl)-piperidin-4-ylmethoxy]-imidazo[1,2-a]pyridin-3-yl}-pyrimidin-4-yl)-[4-(2-methyl-2H-[1,2,3]triazol-4-yl)-benzyl]-amine]: the figures for the IC50 in test [1] and in test [2] were 39 nM and 2.2 nM, respectively.
The corresponding values for `CN1CCC(CCOc2ccn3c(-c4cc(NCc5ccc(-c6cnn(C)c6)cc5)ncn4)cnc3c2)C1` (centres unmarked) [A115, [4-(1-methyl-1H-pyrazol-4-yl)-benzyl]-(6-{7-[2-(1-methyl-pyrrolidin-3-yl)-ethoxy]-imidazo[1,2-a]pyridin-3-yl}-pyrimidin-4-yl)-amine] are 49 nM and 3.7 nM.
The corresponding values for `Cn1ncc(-c2ccc(CNc3cc(-c4cnc5cc(OCc6cccnc6)ccn45)ncn3)cc2)n1` [A112, [4-(2-methyl-2H-[1,2,3]triazol-4-yl)-benzyl]-{6-[7-(pyridin-3-ylmethoxy)-imidazo[1,2-a]pyridin-3-yl]-pyrimidin-4-yl}-amine] are 260 nM and 40 nM.
In the case of `Cn1cc(-c2ccc(CNc3cc(-c4cnc5cc(OCc6ccccc6)ccn45)ncn3)cc2)cn1` [A72, 6-[7-(benzyloxy)imidazo[1,2-a]pyridin-3-yl]-N-{[4-(1-methyl-1H-pyrazol-4-yl)phenyl]methyl}pyrimidin-4-amine], the IC50 in test [1] came out at 540 nM; in test [2], 72 nM.
The corresponding values for `COc1ccn2c(-c3cc(NCc4ccc(-c5cn(CC(C)(C)O)nc5N)cc4)ncn3)cnc2c1` [A229, 1-[3-amino-4-(4-{[6-(7-methoxy-imidazo[1,2-a]pyridin-3-yl)-pyrimidin-4-ylamino]-methyl}-phenyl)-pyrazol-1-yl]-2-methyl-propan-2-ol] are 660 nM and 87 nM.
The matching figures for `Cn1cc(-c2ccc(CNc3cc(-c4cnc5cc([N+](=O)[O-])ccn45)ncn3)cc2)cn1` [A81, N-{[4-(1-methyl-1H-pyrazol-4-yl)phenyl]methyl}-6-{7-nitroimidazo[1,2-a]pyridin-3-yl}pyrimidin-4-amine]: 970 nM and 27 nM.
The matching figures for `COc1ccn2c(-c3cc(NCc4ccc(-c5nnn(C)n5)cc4)ncn3)cnc2c1` [A37, 6-{7-methoxyimidazo[1,2-a]pyridin-3-yl}-N-{[4-(2-methyl-2H-1,2,3,4-tetrazol-5-yl)phenyl]methyl}pyrimidin-4-amine]: 220 nM and 15 nM.
In the case of `CN1CCN(CCCOc2ccn3c(-c4cc(NCc5ccc(-c6cnn(C)n6)cc5)ncn4)cnc3c2)CC1` [A96, N-{[4-(2-methyl-2H-1,2,3-triazol-4-yl)phenyl]methyl}-6-{7-[3-(4-methylpiperazin-1-yl)propoxy]imidazo[1,2-a]pyridin-3-yl}pyrimidin-4-amine], the IC50 amounted to 31 nM in test [1] and 2.9 nM in test [2].
